Data taken from patent publication US20210137961A1, “Compositions and Methods for Treating Dry Eye Diseases” (priority 2017, published 2021).
Values after ≈ are worked out from the molar mass of the structure shown. Read-outs that look alike come from different tables or passages of the source.

How the values were obtained:
[1] = system: pathogenic bacteria; assay type: cell-based
[2] = system: Streptococcus mitis; assay: MIC against Streptococcus mitis; assay type: cell-based; settings: N 73
[3] = system: phagocytized L. monocytogenes; assay type: cell-based
[4] = system: MMP9; assay: MMP9 activity in PMA-stimulated U937 cells (gelatin zymography); assay type: cell-based, human; settings: PMA stimulation
Method: EXAMPLE. […] Cells. The human monocytic cell line U937 was obtained from the American Type Culture Collection (ATCC, Rockville, Md.). PBMCs from COPD patients were obtained from Brompton hospital and separated by AccuSPIN (Sigma-Aldrich). […] U937 cells were differentiated into adherent macrophage-like morphology by exposure to PMA (50 ng/ml) for 48 h in complete growth medium. Cell viability was assessed microscopically by trypan blue staining. Cell toxicity was determined by MTT assay as needed. This study was approved by the ethics committee of the Royal Brompton Hospitals, and all subjects gave written informed consent. Zymography. MMP9 enzyme activity was measured by gelatin zymography. […] After electrophoresis, gels were incubated and rinsed with Novex® zymogram renaturing buffer (Invitrogen) for 30 min at room temperature. The gels were then rinsed in Novex® zymogram developing buffer (Invitrogen) for 30 min at room temperature prior to overnight incubation in the developing buffer at 37° C. After incubation, the gels were stained using a Colloidal Blue Staining Kit (Invitrogen) to visualize the zymogen bands. Statistical analysis. The results were expressed as the mean±SEM. Comparisons of data in two groups were performed using the Student's t test or the Wilcoxon signed rank test. Multiple comparisons were made by one-way ANOVA with post hoc test (Dunnett's) as appropriate. The difference was considered significant at p<0.05.

[5] = system: S. pneumoniae; assay: MIC against S. pneumoniae (30 species); assay type: cell-based
[6] = system: H. influenzae; assay: MIC against H. influenzae (30 species); assay type: cell-based
[7] = system: MSSA; assay: MIC against MSSA (31 species); assay type: cell-based
[8] = system: Chlamydia trachomatis; assay: MIC against Chlamydia trachomatis; assay type: cell-based; settings: N 10
[9] = system: Peptostreptococcus spp.; assay: MIC against Peptostreptococcus spp.; assay type: cell-based; settings: N 10
[10] = system: Streptococci (Groups C, F, G); assay: MIC against Streptococci (Groups C, F, G); assay type: cell-based; settings: N 185
[11] = system: Viridans group streptococci; assay: MIC against Viridans group streptococci; assay type: cell-based; settings: N 51
[12] = Protein binding in plasma; assay type: in vitro ADME
[13] = system: Corynebacterium spp.; assay: MIC against Corynebacterium spp.; assay type: cell-based; settings: N 10
[14] = system: phagocytized L. pneumophila; assay type: cell-based
[15] = system: Legionella pneumophila; assay type: cell-based
[16] = system: CA-MRSA; assay: MIC against CA-MRSA; assay type: cell-based, Staphylococcus aureus; settings: N 30
[17] = system: Streptococcus pyogenes; assay: MIC against Streptococcus pyogenes; assay type: cell-based
[18] = system: Haemophilus influenzae; assay: MIC against Haemophilus influenzae; assay type: cell-based
[19] = system: Ureaplasma urealyticum; assay: MIC against Ureaplasma urealyticum; assay type: cell-based; settings: N 10
[20] = system: Streptococcus agalactiae; assay: MIC against Streptococcus agalactiae; assay type: cell-based; settings: N 535
[21] = system: Mycoplasma hominis; assay: MIC against Mycoplasma hominis; assay type: cell-based; settings: N 13
[22] = system: Haemophilus parainfluenzae; assay: MIC against Haemophilus parainfluenzae; assay type: cell-based; settings: N 11
[23] = system: MSRA; assay: MIC against MSRA (30 species); assay type: cell-based
[24] = system: phospholipase; assay: Phospholipase inhibition in other cell lines; assay type: cell-based
[25] = system: Staphylococcus aureus; assay: MIC against Staphylococcus aureus; assay type: cell-based; settings: N 201
[26] = Streptococcus pyogenes (a), N 407

CC[C@H]1OC(=O)[C@@](C)(F)C(=O)[C@H](C)[C@@H](O[C@@H]2O[C@H](C)C[C@H](N(C)C)[C@H]2O)[C@](C)(OC)C[C@@H](C)C(=O)[C@H](C)[C@H]2N(CCCCn3cc(-c4cccc(N)c4)nn3)C(=O)O[C@]12C [Solithromycin, solithromycin]
activity against Azi resistant strains [1]: active against all Azi resistant strains tested
potency relative to Azi [1]: 8-16 fold
activity relative to conventional macrolides ([1]; greater activity): 10 fold
intracellular activity relative to Azi ([1]; intracellular): 10 fold
MIC50 [2]: ≤0.03 µg/mL
MIC90 [2]: 0.06 µg/mL (≈ 0.071 µM)
MIC Range [2]: ≤0.03-0.25^ μg/mL
activity against phagocytized bacteria, fold greater [3]: 50-100 fold
potency relative to azithromycin ([3]; phagocytized L. monocytogenes): 50 fold
IC50 [4]: 14.9 ± 3.1 µM
I = intermediate susceptibility [5]: 0%
MIC50 [5]: 0.002 µg/mL (≈ 0.00237 µM)
MIC90 [5]: 0.12 µg/mL (≈ 0.142 µM)
MIC Range [5]: ≤0.001-0.25 ^ μg/ml
NS = not susceptible [5]: 0%
S = susceptible [5]: 100%
I = intermediate susceptibility [6]: 0%
MIC50 [6]: 2 µg/mL (≈ 2.37 µM)
MIC90 [6]: 2 µg/mL (≈ 2.37 µM)
MIC Range [6]: 1 to 4 µg/mL
NS = not susceptible [6]: 0%
S = susceptible [6]: 100%
I = intermediate susceptibility [7]: 0%
MIC50 [7]: 0.015 µg/mL (≈ 0.0178 µM)
MIC90 [7]: 0.03 µg/mL (≈ 0.0355 µM)
MIC Range [7]: 0.004 to 64 µg/mL
NS = not susceptible [7]: 6%
S = susceptible [7]: 94%
MIC50 [8]: 0.25 µg/mL (≈ 0.296 µM)
MIC90 [8]: 0.25 µg/mL (≈ 0.296 µM)
MIC Range [8]: 0.125 to 0.5 µg/mL
MIC50 [9]: 0.06 µg/mL (≈ 0.071 µM)
MIC90 [9]: 0.25 µg/mL (≈ 0.296 µM)
MIC Range [9]: ≤0.03-0.25^ μg/mL
MIC50 [10]: ≤0.03 µg/mL
MIC90 [10]: ≤0.03 µg/mL
MIC Range [10]: ≤0.03-0.25^ μg/mL
MIC50 [11]: ≤0.008 µg/mL
MIC90 [11]: 0.06 µg/mL (≈ 0.071 µM)
MIC Range [11]: ≤0.008-0.12 ^ μg/mL
protein binding in plasma [12]: 86%
MIC50 [13]: 0.015 µg/mL (≈ 0.0178 µM)
MIC90 [13]: 0.5 µg/mL (≈ 0.592 µM)
MIC Range [13]: ≤0.008-16 ^ μg/mL
potency relative to azithromycin [14]: 100 fold
MIC90 ([15]; Legionella pneumophila (30 strains)): ≤0.015 µg/mL
MIC50 ([15]; Legionella pneumophila, N 30): ≤0.015 µg/mL
MIC90 ([15]; Legionella pneumophila, N 30): ≤0.015 µg/mL
MIC Range ([15]; Legionella pneumophila, N 30): ≤0.015 µg/mL
MIC50 [16]: 0.12 µg/mL (≈ 0.142 µM)
MIC90 [16]: 0.12 µg/mL (≈ 0.142 µM)
MIC Range [16]: 0.06 to 0.12 µg/mL
MIC90 ([17]; Streptococcus Pyogenes (100 strains)): 0.03 µg/mL (≈ 0.0355 µM)
MIC50 [17, 26]: ≤0.03 µg/mL
MIC90 [17, 26]: ≤0.03 µg/mL
MIC Range [17, 26]: ≤0.03-0.5 ^ μg/mL
MIC50 ([17]; Streptococcus pyogenes, N 407): ≤0.03 µg/mL
MIC90 ([17]; Streptococcus pyogenes, N 407): ≤0.03 µg/mL
MIC Range ([17]; Streptococcus pyogenes, N 407): ≤0.03-0.5 ^ μg/mL
MIC90 ([18]; Haemophilus influenzae (100 strains)): 2 µg/mL (≈ 2.37 µM)
MIC50 ([18]; Haemophilus influenzae, N 100): 1 µg/mL (≈ 1.18 µM)
MIC90 ([18]; Haemophilus influenzae, N 100): 2 µg/mL (≈ 2.37 µM)
MIC Range ([18]; Haemophilus influenzae, N 100): 0.12 to 4 µg/mL
MIC50 [19]: 0.008 µg/mL (≈ 0.00947 µM)
MIC90 [19]: 0.031 µg/mL (≈ 0.0367 µM)
MIC Range [19]: 0.004 to 0.063 µg/mL
MIC50 [20]: ≤0.03 µg/mL
MIC90 [20]: ≤0.03 µg/mL
MIC Range [20]: ≤0.03-0.5 ^ μg/mL
MIC50 [21]: 0.004 µg/mL (≈ 0.00473 µM)
MIC90 [21]: 0.008 µg/mL (≈ 0.00947 µM)
MIC Range [21]: 0.002 to 0.008 µg/mL
MIC50 [22]: 2 µg/mL (≈ 2.37 µM)
MIC90 [22]: 2 µg/mL (≈ 2.37 µM)
MIC Range [22]: 1 to 2 µg/mL
I = intermediate susceptibility [23]: 0%
MIC50 [23]: 0.03 µg/mL (≈ 0.0355 µM)
MIC90 [23]: 64 µg/mL (≈ 75.7 µM)
NS = not susceptible [23]: 30%
S = susceptible [23]: 70%
reversibility of phospholipase inhibition ([24]; after dosing is stopped): rapidly reversible
IC50 ([24]; other cell lines, read-out: IC50 for phospholipase inhibition): 100 µM
MIC50 [25]: 0.12 µg/mL (≈ 0.142 µM)
MIC90 [25]: >16 µg/mL
